Assay: Clinical pharmacokinetics in humans (literature)
Conditions: for Cmax,u: acamprosate, calculated

CC(=O)NCCCS(=O)(=O)O [acamprosate, acetylhomotaurinate]
Cmax,u (IV bolus, 333 mg): 153 ± 38 µM
Cmax,u (IV bolus, 666 mg): 214 ± 10 µM
Cmax,u (IV bolus, 710 mg): 230 ± 64 µM
Cmax,u (IV bolus, 1420 mg): 486 ± 106 µM
Cmax,u (IV bolus, 2130 mg): 768 ± 149 µM
Cmax,u (oral solution, 333 mg): 1.8 ± 0.8 µM
Cmax,u (oral solution, 666 mg): 4.3 ± 1.4 µM
Cmax,u (oral solution, 1332 mg): 5.0 ± 1.7 µM
Cmax,u (oral solution, 2664 mg): 8.6 ± 4.1 µM
Cmax,u (oral tablet, 666 mg): 1.4 ± 1.1 µM
Cmax,u (oral tablet, 1332 mg): 1.5 ± 0.1 µM
contribution of active secretion to total CLR (estimated from CLR and GFR·fu): more than 44%

— PMC7238232, “Acamprosate Is a Substrate of the Human Organic Anion Transporter (OAT) 1 without OAT3 Inhibitory Properties: Implications for Renal Acamprosate Secretion and Drug–Drug Interactions” (Pharmaceutics, 2020)
